Test results reported in ChEMBL document CHEMBL5634205, “Pyrazolopyridine-based kinase inhibitors for anti-cancer targeted therapy” (RSC Med Chem, 2024).

Target: T1, Tyrosine-protein kinase receptor TYRO3 (Homo sapiens, UniProt Q06418)
T1 sequence (Q06418 whole entry): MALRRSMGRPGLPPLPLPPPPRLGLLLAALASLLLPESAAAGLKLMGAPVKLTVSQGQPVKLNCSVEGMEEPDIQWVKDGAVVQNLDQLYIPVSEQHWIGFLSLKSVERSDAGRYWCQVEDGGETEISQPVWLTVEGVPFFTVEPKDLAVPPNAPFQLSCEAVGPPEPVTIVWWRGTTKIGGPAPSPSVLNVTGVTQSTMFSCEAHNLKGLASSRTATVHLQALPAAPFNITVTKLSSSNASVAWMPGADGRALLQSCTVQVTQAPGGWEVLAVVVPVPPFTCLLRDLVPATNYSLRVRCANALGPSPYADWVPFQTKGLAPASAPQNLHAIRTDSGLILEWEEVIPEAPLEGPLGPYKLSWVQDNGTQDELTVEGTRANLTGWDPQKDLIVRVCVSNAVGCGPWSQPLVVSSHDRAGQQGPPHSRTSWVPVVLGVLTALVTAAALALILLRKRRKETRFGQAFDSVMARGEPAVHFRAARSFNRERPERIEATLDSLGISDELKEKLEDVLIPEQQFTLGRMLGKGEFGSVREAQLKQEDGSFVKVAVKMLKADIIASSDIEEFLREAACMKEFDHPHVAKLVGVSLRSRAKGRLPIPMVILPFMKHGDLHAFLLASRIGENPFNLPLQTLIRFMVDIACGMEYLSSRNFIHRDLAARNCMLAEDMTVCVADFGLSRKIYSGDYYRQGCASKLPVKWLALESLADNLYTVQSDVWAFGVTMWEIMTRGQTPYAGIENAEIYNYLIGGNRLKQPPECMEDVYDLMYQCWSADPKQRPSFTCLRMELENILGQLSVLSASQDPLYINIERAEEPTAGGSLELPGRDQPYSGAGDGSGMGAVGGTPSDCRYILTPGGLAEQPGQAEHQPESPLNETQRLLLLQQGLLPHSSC
Experiment: Inhibition of SKY (unknown origin)

CN1C(=O)CCc2cc(NC(=O)c3n[nH]c4ccccc34)ccc21
IC50: 3.2 nM

O=C(O)c1cccc(C(=O)Nc2n[nH]c3ncc(-c4ccc(F)cc4)cc23)c1
IC50: 1.2 nM
